From paper PMC8329197, “Compounds targeting OSBPL7 increase ABCA1-dependent cholesterol efflux preserving kidney function in two models of kidney disease” (Nature Communications, 2021)
Several values for one entry are separate records, joined by “and”; a condition that tells them apart may be missing. Equal entries are not always repeated.

Legend:
OSBPL7 = tested on: T1, OSBPL7; experiment: Competition with ^3H-Cpd K UV cross-linking to FLAG-tagged OSBPL7 in HEK293 cells (immunoprecipitation, autoradiography); type: binding, human; set-up: OSBP7 percentage of inhibition / OSBP7 percentage of inhibition, average: concentration or dose not given beside the values; OSBPL7 Competition %: dose or concentration left out as unconfirmed
T1 construct: Plasmids expressing each as a full-length protein with a C-terminal FLAG tag were obtained; expressed in transfected cells; host or cells: HEK293
Description: Briefly, a plasmid expressing a candidate target of interest fused with a FLAG tag was transfected into HEK293 cells. After 24 h, tritiated compound K at a concentration capable of inducing ABCA1-mediated cholesterol efflux (1.0 μM) was added for 3 h, then the live cells were exposed to UV-light (ʎ = 336 nm) to query potential compound/target cross-linking in situ. Cell lysates were prepared, the expressed protein was then selectively immunoprecipitated using an anti-FLAG antibody coupled to sepharose beads, bound proteins were separated by SDS-PAGE, and two identical blots were prepared and probed by western blot and by autoradiography to detect protein expression and presence or absence of compound crosslinking, respectively. The flow chart of this screen is illustrated in Fig. 2. Figure 2d illustrates the ability of Cpd A and Cpd G to displace tritiated Cpd K from overexpressed and immunoprecipitated OSBPL7. Figure 3b illustrates the use of this assay to detect binding of tritiated Cpd K to overexpressed and immunoprecipitated variants of OSBPL7 containing point mutations in the predicted oxysterol binging pocket of OSBPL7. The advantages of this method are: i. the use of plasmid transfection leads to high expression of each candidate which reduces the likelihood to miss an authentic target for those which may be expressed at low endogenous levels, ii. the interaction of the chemical probe with its target occurs in a relevant biological context (live cells) at a pharmacologically active concentration, and iii. immunoprecipitation allows the expressed protein of interest to be purified from background proteins, substantially improving the signal/noise ratio.

human THP1 macrophages = experiment: apoAI-mediated (ABCA1) cholesterol efflux from cholesterol-loaded THP1 macrophages; type: cell-based; set-up: ABCA1 Efflux %: dose or concentration left out as unconfirmed
[1] = biological target: human cannabinoid 1 receptor (hCB1-R) (Homo sapiens, UniProt P21554); experiment: Potency for binding to the CB1R in vitro (Ki); settings: for Ki: human CB1 receptor binding
Chain of human cannabinoid 1 receptor (hCB1-R) (P21554 whole entry): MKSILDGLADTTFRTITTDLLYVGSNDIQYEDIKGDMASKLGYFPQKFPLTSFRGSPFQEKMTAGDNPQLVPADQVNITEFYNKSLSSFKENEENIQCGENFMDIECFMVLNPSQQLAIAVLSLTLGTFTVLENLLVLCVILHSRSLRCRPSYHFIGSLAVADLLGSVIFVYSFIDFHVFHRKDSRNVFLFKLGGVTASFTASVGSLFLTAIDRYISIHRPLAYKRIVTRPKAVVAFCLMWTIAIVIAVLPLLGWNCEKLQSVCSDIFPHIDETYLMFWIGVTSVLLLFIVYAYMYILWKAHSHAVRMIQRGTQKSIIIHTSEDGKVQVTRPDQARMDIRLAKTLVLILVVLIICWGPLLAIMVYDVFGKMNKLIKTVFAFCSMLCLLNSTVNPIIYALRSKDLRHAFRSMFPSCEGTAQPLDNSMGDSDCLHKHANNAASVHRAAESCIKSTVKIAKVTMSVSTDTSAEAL

[2] = tested on: T2, OSBPL7 single mutations in the putative ORD; experiment: ^3H-Cpd K binding to OSBPL7 single mutants (cross-linking/immunoprecipitation); set-up: species or system human; settings: K636A vs wild type
T2 construct: Plasmids expressing each as a full-length protein with a C-terminal FLAG tag were obtained; expressed in transfected cells; host or cells: HEK293
Excerpt: Based on the model, we identified key amino acid residues predicted to line the OSBPL7 ligand-binding pocket, and introduced a series of single mutations. Each mutant was transfected into cells and tested for ^3H-Cpd K binding. Mutation of lysine 636 to alanine reduced the ability of Cpd K to be crosslinked to OSBPL7 by ~75% (Fig. 3b). […] The homology model also predicts that a hydrophobic beta sheet lines the pocket, defined by amino acids that are conserved in the ORDs of other OSBPs (Ile641, Val616, Val618, and Lys636).
Briefly, a plasmid expressing a candidate target of interest fused with a FLAG tag was transfected into HEK293 cells. After 24 h, tritiated compound K at a concentration capable of inducing ABCA1-mediated cholesterol efflux (1.0 μM) was added for 3 h, then the live cells were exposed to UV-light (ʎ = 336 nm) to query potential compound/target cross-linking in situ. Cell lysates were prepared, the expressed protein was then selectively immunoprecipitated using an anti-FLAG antibody coupled to sepharose beads, bound proteins were separated by SDS-PAGE, and two identical blots were prepared and probed by western blot and by autoradiography to detect protein expression and presence or absence of compound crosslinking, respectively. The flow chart of this screen is illustrated in Fig. 2. […]

SMILES	OSBP7 percentage of inhibition, average (OSBPL7; average of 3) [%]	OSBPL7 Competition % (OSBPL7; average(SEM))	OSBP7 percentage of inhibition (OSBPL7; single experiments (3 per compound))	Competition for ^3H-Cpd K binding to OSBPL7 (OSBPL7; unlabeled Cpd K at 50-fold excess, Cpd A, Cpd G 10 and 50 µM)	ABCA1 percentage of induction, average (human THP1 macrophages; average of 3) [%]	ABCA1 Efflux % (human THP1 macrophages; average(SEM))	Ki [1] [nM]	Fold reduced affinity for hCB1R ([1]; vs Cpd H)	Reduction of binding/crosslinking to OSBPL7 by mutation K636A [2]	EC50 (human THP1 macrophages; THP-1, apoAI-dependent cholesterol efflux from human THP1 cells) [nM]
[N-]=[N+]=Nc1ccc(-c2cc(C(=O)N[C@@H]3CCCC[C@H]3O)cnc2OCC2CC2)cc1Cl [Cpd K, 5-(4-azido-3-chlorophenyl)-6-(cyclopropylmethoxy)-N-[(1R,2R)-2-hydroxycyclohexyl]-3-pyridine-carboxamide]	68	68(3.8) %	62% and 75% and 68%	effectively competed	49	49(10.7) %	2570	more than 200 fold	~ 75%	
[3H]c1nc(OCC2CC2)c(-c2ccc(N=[N+]=[N-])c(Cl)c2)c([3H])c1C(=O)N[C@@H]1CCCC[C@H]1O [^3H-Cpd K]							2570		~ 75%	200
